Data: patent US11396548B2, “EGFR targeted therapy of neurological disorders and pain” (Sykehuset Sørlandet HF, priority 2012, dated 2022)
“Also recorded” adds a separate entry of the source.

How the values were obtained:
Assay type in all cases: in vivo, human
[1] = tested on: patients with neuropathic pain; experiment: Case reports: relief of neuropathic pain by EGFR inhibitors (0-10 NRS / Brief Pain Inventory); conditions: for Phantom-limb pain response: Case 5, panitumumab then erlotinib; for NP relief (summary of the cases): conditions where proximal and/or distal parts of peripheral nerves were affected
Procedure: The term “in vivo” refers to the natural environment (e.g., an animal or a cell) and to processes or reaction that occur within a natural environment. […] Pain interference is assessed using the Brief Pain Inventory (BPI). BPI is used to evaluate pain interference with the following: (a) general activity, (b) mood, (c) walking ability, (d) normal work, (e) relations with other people, (f) sleep, and (g) enjoyment of life. Total score for pain interference is calculated as: (Mean score of non-missing questions)×(7/number of non-missing questions). If four or more questions are missing, the pain interference total score is set to missing.
In some cases, the patients were asked to complete a BPI short form daily, just before and during the EGFR inhibition, in order to document their neuropathic pain and thus, help us to judge their responses and guide treatment decisions.

[2] = Case reports: concomitant analgesic / opioid requirement during EGFR inhibition
[3] = Case reports: side effects of EGFR inhibitors
[4] = Case reports: performance status, function, quality of life and accompanying symptoms; conditions: Case 7, CIPN; after six to eight weeks of treatment
[5] = Case 2, yrs, complex regional pain syndrome type 1 of the right hand, sequence cetuximab, panitumumab, cetuximab, gefitinib, erlotinib
[6] = Case 14, panitumumab then erlotinib, four weeks
[7] = Case 2, CRPS1, after gefitinib discontinuation, 10/10 before treatment

For `C#Cc1cccc(Nc2ncnc3cc(OCCOC)c(OCCOC)cc23)c1` [erlotinib], which Neuropathic pain response [1, 5] is on record?
Its Neuropathic pain response is “pain-free upon conversion from panitumumab to erlotinib; also recorded: has not recurred since; also recorded: continues to be completely resolved”.

And the Phantom-limb pain response [1]?
The Phantom-limb pain response was “reported phantom-limb pain improvement”.

What about the “Least degree of pain” value ([1]; Case 9, 10 days on erlotinib 150 mg tablets) of the same compound?
Its value is 0 /10.

And the Onset of effect ([1]; Case 9, oral erlotinib 150 mg)?
Its Onset of effect is “four to five days”.

What about the Pain relief ([1]; Case 13, 150 mg oral erlotinib after panitumumab, over the following three weeks) of the same compound?
Its Pain relief is “up to 70%”.

What about the Pain reduction ([1]; Case 13, four weeks after starting erlotinib, week with slightly worsening pain, uses omeprazole) of the same compound?
The Pain reduction was 60%.

What about the Average pain ([1]; Case 14, four weeks after start of EGFR-I (panitumumab), one week after starting erlotinib, around 5 before) of the same compound?
The Average pain was 4 out of 10.

And the Maximum pain ([1]; Case 14, four weeks after start of EGFR-I, one week after starting erlotinib, 10 before)?
Its Maximum pain is 6 0-10 pain scale.

What about the “NP relief (summary of the cases)” value [1] of the same compound?
The value was “led to complete NP relief”.

What about the “Neuropathic pain response (BPI scores, FIG. 7 lower panel)” value ([1]; previously EGFR-I naive patient (case 9)) of the same compound?
The value was “responded to upfront treatment”.

And the Analgesic requirement ([2]; Case 5)?
The Analgesic requirement was “opioid requirement diminished”.

What about the Side effect ([3]; Case 9, erlotinib) of the same compound?
The Side effect was “dry skin grade II which was transient”.

What about the Side effects [3, 6] of the same compound?
The Side effects was “has not experienced any side effects to date”.

With panitumumab as the compound, how does the “Pain score 48 hours after panitumumab infusion” value [1, 7] read?
Its value is 3 /10.

What about the “Pain score the next day after panitumumab infusion” value [1, 7] of the same compound?
Its value is 5 /10.

And the Neuropathic pain response [1, 5]?
Its Neuropathic pain response is “recurrence of severe pain on the very same evening as the panitumumab infusion; also recorded: completely gone again on the third day; also recorded: dramatic increase in pain just hours after infusion; also recorded: dramatic pain relief within hours”.

And the Phantom-limb pain response [1]?
The Phantom-limb pain response was “again effectively alleviated within one day after the second infusion”.

And the “Time to complete relief after first infusion” value ([1]; Case 6, panitumumab)?
The value was no more than 24 h.

And the Pain reduction ([1]; Case 7, CIPN, after four to six weeks (2-3 doses) of panitumumab)?
The Pain reduction was 60-70%.

What about the Maximum pain intensity ([1]; Case 7, CIPN, two weeks after first panitumumab, only lasted a few seconds) of the same compound?
The Maximum pain intensity was “ten out of ten”.

What about the “Duration of painful bursts” value ([1]; Case 7, CIPN, two weeks after first panitumumab, several minutes before) of the same compound?
Its value is “five to ten seconds”.

What about the “Herpes Zoster related symptoms” value ([1]; Case 8, herpetic neuralgia Th5, Day 20, panitumumab infusion, bursts 10/10 on days 16-20) of the same compound?
The value was “pain had completely resolved”.

What about the “Herpes Zoster related symptoms: intensity, frequency and duration of painful bursts” value ([1]; Case 8, Day 34) of the same compound?
The value was “improve (since day 21)”.

What about the “Time to complete pain relief, into the infusion” value ([1]; Case 8, panitumumab infusion on day 20) of the same compound?
The value was “approximately 10 minutes”.

What about the “Pain level at recurrence” value ([1]; Case 10, 15 days after the initial panitumumab infusion) of the same compound?
Its value is 9 out of 10.

And the “Pain intensity during the following weeks” value ([1]; Case 10, after first panitumumab 6 mg/kg)?
Its value is 2-3 NRS.

What about the Neuropathic pain response ([1]; Case 11, two days after panitumumab infusion and on continued treatment every 2 weeks) of the same compound?
Its Neuropathic pain response is “completely gone; also recorded: NP has not recurred”.

What about the Reported pain reduction ([1]; Case 12, after two panitumumab infusions) of the same compound?
The Reported pain reduction was 75%.

What about the “Duration of analgesic effect” value ([1]; Case 12, first panitumumab infusion) of the same compound?
Its value is “lasted only one week”.

And the “Worst pain level after second infusion” value ([1]; Case 12, second panitumumab infusion after two weeks, pregabalin reduced from 375 mg to 225 mg)?
Its value is “around three”.

What about the “Peak NP in occasional episodes” value ([1]; Case 12, three months after initial EGFR-I administration) of the same compound?
Its value is 3.

What about the “Average NP” value ([1]; Case 12, three months after initial EGFR-I administration, treatment on hold) of the same compound?
Its value is 2.

And the “Reduction in pain intensity” value ([1]; Case 13, yrs, CIPN (oxaliplatin), two days after 6 mg/kg panitumumab i.v.)?
The value was 20-30%.

What about the Distribution of pain ([1]; Case 13, two days after panitumumab, pain only located distally in feet) of the same compound?
The Distribution of pain was “the pain in the legs had completely disappeared”.

And the “Pain further reduced by, of baseline levels” value ([1]; Case 13, two weeks after the panitumumab infusion)?
Its value is 30-40%.

And the “Worst pain in the first two weeks after the infusion” value ([1]; Case 14, panitumumab, amitryptiline reduced from 40 mg to 20 mg, exacerbations 10 out of 10 before)?
Its value is 6-7 out of 10.

And the “Time to pain recurrence after panitumumab” value ([1]; case 3)?
The value was “roughly 20 days”.

And the “NP relief (summary of the cases)” value [1]?
The value was “led to complete NP relief”.

What about the Analgesic requirement ([2]; Case 5) of the same compound?
The Analgesic requirement was “required less breakthrough pain medication”.

And the Analgesic requirement ([2]; Case 6, during panitumumab treatment)?
The Analgesic requirement was “no longer required analgesics”.

And the Opiate requirement ([2]; Case 11, two days after panitumumab, 100 mg depot morphine per 24 hours before)?
Its Opiate requirement is “no longer required opiates”.

What about the Side effects ([3]; Case 11, panitumumab every 2 weeks) of the same compound?
Its Side effects is “transient acne; also recorded: has otherwise not experienced any side effects”.

What about the Side effect ([3]; Case 12, panitumumab) of the same compound?
The Side effect was “skin rash grade 2-3”.

And the Side effects [3, 6]?
The Side effects was “has not experienced any side effects to date”.

And the Sensibility [4]?
Its Sensibility is “beginning to regain sensibility in their fingers”.
